Data reported in US20150143553A1, “Methods And Compositions Comprising A Drosophila Model Of Amyotrophic Lateral Sclerosis” (priority 2013, published 2015).

How the values were obtained:
[1] = tested on: Drosophila larvae expressing wild-type TDP-43 in motor neurons; test: Drug screen: rescue of lethality caused by wild-type TDP-43 expression in motor neurons (D42 Gal4); assay type: in vivo; settings: for Av. % rescue (number of rescued adults/total number of pupae × 100%): TDP^WT
[2] = tested on: ALS patients; settings: ALS patients administered pioglitazone; cited from earlier work
[3] = tested on: Larvae expressing TDPG298S in motor neurons; test: Larval turning assay, D42>TDPG298S; assay type: in vivo, Drosophila; settings: 1 μM pioglitazone in food; DMSO 25.8+/−1.8 sec
Procedure: (§1) Assays were performed as disclosed herein. Briefly, wandering third instar larvae were placed on a grape juice plate at room temperature. After becoming acclimated, crawling larvae were gently turned onto their backs (ventral side up) and monitored until they were able to turn back (dorsal side up) and continue their forward movement. The amount of time that it took each larva to complete this task was recorded. Twenty to thirty larvae were used per genotype. Student's t-test was performed to assess statistical significance.
(§2) Next an ideal drug concentration was determined using a more sensitive and disease relevant assay that measures neuromuscular coordination, namely larval turning (see Materials and Methods for details). Larvae expressing TDPWT or TDPG298S in motor neurons (D42>TDP-43) were raised on food containing either 1, 5, 10, 25 μM pioglitazone or DMSO and assayed for their locomotor ability using larval turning assays.
(§3) Assays were performed as described herein (33, 35). Briefly, wandering third instar larvae were placed on room temperature grape juice plates, allowed to acclimate then gently turned ventral side up. The time required for larvae to flip back to dorsal side up and start moving forward was noted as the larval turning time. At least 30 larvae per genotype and condition were tested.

[4] = tested on: D42>TDPWT larvae; test: Global metabolomic profiling, D42>TDPWT larvae; assay type: in vivo, Drosophila; settings: 1 μM pioglitazone
Procedure: To gain insight into the mechanism by which pioglitazone is neuroprotective, a global metabolomic approach was taken using larvae expressing TDP-43 in motor neurons (D42>TDP-43) and D42>w1118 controls raised on either 1 μM pioglitazone, DMSO or regular food. To determine specific metabolites that were restored by pioglitazone in the context of TDPWT, the metabolic profiles of D42>TDPWT larvae raised on drug food versus DMSO were compared and 111 alterations were found among a total of 572 metabolites detected in the samples. […] This led to the identification of 28 metabolites altered by both pioglitazone and TDPWT (Table 2). […] In addition, 6 metabolites further altered by pioglitazone in the same direction as that of TDP-43 were found, consistent with a potential worsening effect. Among the 28 metabolites some were also affected by DMSO alone as determined by comparing the metabolic profiles of D42>TDPWT larvae raised on DMSO and D42>TDPWT larvae raised on regular food.
D42 Gal4 virgin females were crossed with UAS TDP-43 YFP or w1118 males and raised on regular food (RF), DMSO or 1 μM Pioglitazone (PGZ) containing food. 50-60 third instar larvae (approximately 50-60 mg) were collected and flash frozen in liquid nitrogen. Samples were made in 5 replicates. Global metabolomic study was performed following standard protocols by Metabolon, INC (Durham, N.C.). Briefly, protein samples were divided into four fractions: one for analysis by UPLC-MS/MS with positive ion mode electrospray ionization, one for analysis by UPLC-MS/MS with negative ion mode electrospray ionization, one for analysis by GC-MS, and one sample was reserved for backup. Raw data was extracted, peak-identified and QC processed using Metabolon's hardware and software. Compounds were identified by comparison to library entries of purified standards or recurrent unknown entities. Peaks were quantified using area-under-the-curve. Following normalization to Bradford protein concentration data were log transformed. Missing values for a given metabolite were imputed with the minimum observed value for each compound based on the assumption that they were below the limit of instrument detection sensitivity. For studies spanning multiple days, a data normalization step was performed to correct variation resulting from instrument inter-day tuning differences.
Student's T test was used for statistical analysis of larval turning experiments and Log-rank test was used for survival analyses. For metabolomics standard statistical analyses were performed in ArrayStudio on log transformed data. For those analyses not standard in ArrayStudio, the programs R (cran.r-project.org/) or JMP (jmp.com) were used. Welch's two-sample t-test and matched pairs t-test were used to compute p-values. False discovery rates were calculated as described (69).

[5] = tested on: wild-type control larvae (D42>w1118); test: Larval turning assay, wild-type control larvae; assay type: in vivo, Drosophila; settings: 1 μM pioglitazone
Procedure: as §2, §3

[6] = tested on: Larvae expressing TDPWT in motor neurons; test: Larval turning assay, D42>TDPWT; assay type: in vivo, Drosophila; settings: 1 μM pioglitazone in food; DMSO 14.5+/−1 sec
Procedure: as §1, §2, §3

[7] = tested on: Drosophila larvae expressing G298S TDP-43 in motor neurons; test: Drug screen: rescue of lethality caused by G298S TDP-43 expression in motor neurons (D42 Gal4); assay type: in vivo; settings: TDP^G298S
From the text: […] Larvae expressing TDP-43 (wild type or mutant, as shown) are raised on drug containing food.
[…] Larvae expressing TDP-43 (wt or mutant) were raised on drug containing food.
Using a Drosophila model of ALS based on TDP-43 that recapitulates several aspects of the disease pathophysiology (33, 35), a drug screen aimed at identifying FDA approved compounds with neuroprotective potential in vivo were designed (FIG. 37A). […] This phenotype was used to screen for drug candidates with therapeutic potential as determined by their ability to rescue pupal lethality and produce viable adults with extended wings (FIG. 37A).
Larvae expressing TDP-43 in motor neurons (D42>TDP-43) were raised on fly food containing different amounts of drug (1, 10 and 25 μM, see Materials and Methods for details) or Dimethyl Sulfoxide (DMSO) as vehicle control (FIG. 37B, C).
UAS TDP-43 males were crossed with D42-Gal4 female virgins on fly food containing either DMSO or pioglitazone. For DMSO controls, the same volume of DMSO as the corresponding drug concentration was added. Bromophenol blue was added to a final concentration of approximately 0.02% to ensure homogeneity. Crosses were made on drug food with 3 female virgins and 2 males in each vial, and were maintained at 25° C. unless noted. The parents were discarded after 5-7 days then the vials were screened for adult progeny with straight wings from day 14 to day 25. All adults were screened for TDP-43 expression by visualizing the YFP tag. Total number of pupae was counted on day 25. Percent survival was calculated using the formula (total number of straight-winged adults/total number of pupae)×100. All experiments were performed in triplicate.

CCc1ccc(CCOc2ccc(CC3SC(=O)NC3=O)cc2)nc1 (stereo not drawn) [Pioglitazone]
Av. % rescue (number of rescued adults/total number of pupae × 100%) ([1]; PGZ 1 μM): 15.2%
Av. % rescue (number of rescued adults/total number of pupae × 100%) ([1]; PGZ 10 μM): 1.7%
Av. % rescue (number of rescued adults/total number of pupae × 100%) ([1]; PGZ 25 μM): 0.8%
Preliminary rescue result: adults with normal wings ([1]; transgene WT2, 50 μM in fly food): 1 Adult Normal Wings Adults
Rescue Effect ([1]; transgene wt, primary screening (50 μM), out of 15-20 pupae): 1 adults
hazard ratio for mortality [2]: increase in hazard ratio for mortality
larval turning time [3]: 17.3 ± 1.1 s
metabolites altered by both pioglitazone and TDPWT [4]: 28
metabolites altered in opposite direction compared to TDPWT (restoration) [4]: 14
metabolites further altered in the same direction as TDP-43 (worsening) [4]: 6
metabolites similarly affected by pioglitazone and TDPWT (no further change) [4]: 8
saccharopine level, pioglitazone compared to DMSO [4]: 0.67
N-acetylglutamine level, pioglitazone versus DMSO ([4]; Pvalue<0.05): 0.74
4-hydroxybutyrate (GHB) level, pioglitazone compared to DMSO ([4]; Pvalue=0.04): 0.41
metabolite alterations, drug food versus DMSO ([4]; among a total of 572 metabolites): 111
pyruvate level, pioglitazone compared to DMSO ([4]; not significant): 0.68
effect on larval turning time in control larvae [5]: no effect
larval turning time [6]: 9.2 ± 0.7 s
Av. % rescue (number of rescued adults/total number of pupae × 100%) ([7]; PGZ 1 μM): 19.4%
Av. % rescue (number of rescued adults/total number of pupae × 100%) ([7]; PGZ 10 μM): 15.0%
Av. % rescue (number of rescued adults/total number of pupae × 100%) ([7]; PGZ 25 μM): 9.7%
